For one series, the system named is S. aureus strain Xen36. Description: MIC of XEN36 for each antibiotic. Format: cell-based, Staphylococcus aureus. As to conditions: Staphylococcus aureus, XEN36, read-out: MIC of XEN36. On the procedure:
S. aureus strain Xen36 (PerkinElmer, Waltham, Mass.) previously derived from the clinical bacteremia isolate ATCC 49525 (Wright) was used in all experiments. (Francis et al., 2000). […] (Francis et al., 2000). Xen36 was prepared for inoculation as previously described. (Niska et al., 2013; Pribaz et al. (2012)).

Series [1] can be described thus: In vitro release of antibiotics from PLGA/PCL composite coatings on titanium K-wires (HPLC). Particulars: stored coated pins, two-week in vitro release. The format is physicochemical. On the procedure:
The release rate of the polymer composite film was measured by HPLC. Drug release studies were conducted using coated pins created with the same loading parameters as those used for later in vivo testing (10% (w/w) drug combinations) electrospun for 60 seconds at injection rates of 0.5 mL/h from each needle. Release rate of antibiotics from the composite polymer coating was characterized by placing coated pins in 200 μL pH 7.4 PBS buffer and incubating at 37° C. in an aluminum film-covered incubator to prevent possible light-induced drug degradation. Release media was changed at fixed time points over a period of two weeks and stored in a −20° C. freezer until analysis. Drug concentrations in release media for each day were determined via reverse-phase HPLC using a C-18 column in an Alliance HPLC system and Waters 2996 PDA detector. The mobile phase was a mixture of acetonitrile and water both mixed with 0.1% TFA acid, which was run at a gradient from (15%/85%) to (40%/60%) for a total runtime of 15 minutes per sample for the elution of Van/Rif and Lin/Rif drug loading groups. Elution of the Dap/Rif loading group was conducted using a mobile phase of (49%/51%) of acetonitrile and water both mixed with 0.1% TFA acid for a total run time of 11 minutes per sample. Concentrations of the drugs were quantified using wavelengths of 343 nm for Rif, 254 nm for Lin, 280 nm for Van and 223 nm for Dap using prepared standard curves for all three drugs. […] Quantification was performed through the derivatization of Gentamicin with ninhydrin at 95° C. for 15 minutes and detection with a Biotek Synergy2 plate reader.
Long-term efficacy of the antimicrobial activity was tested by storing electrospun pins at room temperature for 6 weeks, −20° C. for 6 weeks, and −80° C. for 8 months. Coated pins were protected from light during storage. These pins were then used in the same zone of inhibition assay as described hereinabove.
Drug release studies were conducted using coated pins created with the same loading parameters as detailed above. Release kinetics of antibiotics from the composite coating were characterized by placing coated pins in 200 μL of phosphate buffer saline (PBS, pH 7.4) at 37° C. Release media was changed daily over a period of two weeks and stored at −20° C. until analysis. Drug concentrations in release media were measured on days 1, 2, 3, 5, 7, 10 and 14 using a Waters Alliance 2690 HPLC system (Waters Corporation, Milford, Mass.) equipped with an Accucore RP-MS C18 column (100 mm×2.1 mm; Thermo Fisher Scientific) and a Waters 2996 PDA detector. The elution was carried out with a mobile phase of water and acetonitrile both mixed with 0.1% TFA at a flow rate of 1 mL/min at ambient temperature using a linear gradient elution program of 85% water to […] in 15 minutes. Concentrations of the drugs were quantified using wavelengths for Van (280 nm), Lin (254 nm), Dap (224 nm) and Rif (263 nm).

Another series deals with S. aureus. The experiment in a line: In vitro zone of inhibition assay of coated K-wires. Particulars: 6 weeks room temperature, 6 weeks −20° C., 8 months. The format is cell-based, Staphylococcus aureus. An excerpt: A zone of inhibition assay was used as an additional assay to evaluate the in vitro release of antibiotic(s) from the composite coating. Tryptic soy agar bacterial plates were inoculated with S. aureus bacteria cells to yield a bacterial lawn after overnight culture. After bacterial inoculation and before culturing the plates, two identical titanium K-wires loaded with either 10 w/w % Lin, 10 w/w % Van, or 10 w/w % Dap alone, or in combination with Rif were placed in two separate areas on the plate. After culturing the plates at 37° C. for 24 hours, the antimicrobial activity of the eluded antibiotic(s) into the agar was measured as a zone of inhibition (diameter [mm]) of the bacterial growth around the K-wire.
Long-term efficacy of the antimicrobial activity was tested by storing electrospun pins at room temperature for 6 weeks, −20° C. for 6 weeks, and −80° C. for 8 months. Coated pins were protected from light during storage. These pins were then used in the same zone of inhibition assay as described hereinabove. These antimicrobial results were further confirmed with a two-week in vitro release study to determine release kinetics after storage.
Tryptic soy agar (TSA) bacterial plates were inoculated with S. aureus to yield a bacterial lawn after overnight culture. Before culturing the plates, two titanium K-wires each loaded with the same combination of antibiotics from each set were placed in two separate areas on the plate. After culturing at 37° C. for 24 hours, the zone of inhibition (ZOI) (diameter/mm) of bacterial growth were measured.

Series [2] relates to S. aureus bioluminescent strain Xen36. Description: Mouse model of prosthetic joint infection (PJI): in vivo bioluminescence imaging and CFU. Set-up: species or system mice. Particulars: intravenous prophylaxis 110 mg/kg at −1 and 16 hours. An excerpt:
A previously established mouse model of a prosthetic joint infection (PJI) (Pribaz et al., 2012) was used to evaluate the efficiencies of the composite coatings in providing sustained in situ release and in vivo antimicrobial activity (FIG. 5A, FIG. 5B, FIG. 5C, FIG. 5D, FIG. 5E, FIG. 5F, FIG. 5G, FIG. 5H, FIG. 5I, FIG. 5J, FIG. 5K, and FIG. 5L). A medical-grade titanium K-wire (0.5 mm in diameter, 9 mm in length) coated with PLGA/PCL fiber coating ± antibiotics was surgically placed into the right distal femur of mice. Briefly, a medial parapatellar arthrotomy on the right knee was performed with lateral displacement of the quadriceps-patellar complex. […]
Noninvasive and longitudinal measurements of the bacterial burden were performed using in vivo bioluminescence imaging of the bioluminescent signals from live and actively metabolizing Xen36 bacteria at the site of infection in the post-operative knee joints of anesthetized mice over a 2-week course of infection using the IVIS Lumina III in vivo imaging system (PerkinElmer) on days 0, 1, 3, 5, 7, and 14. Data are presented on a color scale overlaid on a grayscale photograph of mice and quantified as maximum radiance (photons/second/cm^2/steradian) within a circular region of interest (1×10^3 pixels) using Living Image software. […]

Structures are written as SMILES.

For the molecule `CN[C@H](CC(C)C)C(=O)N[C@H]1C(=O)N[C@@H](CC(N)=O)C(=O)N[C@H]2C(=O)N[C@H]3C(=O)N[C@H](C(=O)N[C@H](C(=O)O)c4cc(O)cc(O)c4-c4cc3ccc4O)[C@H](O)c3ccc(c(Cl)c3)Oc3cc2cc(c3O[C@@H]2O[C@H](CO)[C@@H](O)[C@H](O)[C@H]2O[C@H]2C[C@](C)(N)[C@H](O)[C@H](C)O2)Oc2ccc(cc2Cl)[C@H]1O` [Van, vancomycin], the minimal inhibitory concentration (MIC) (as a rule, the lowest concentration found to suppress growth) with S. aureus strain Xen36 is 0.5 µg/mL. Moreover, in series [1], the “release kinetics after storage” value is listed as “no difference in the release kinetics”. In addition, in the series with S. aureus, the “antimicrobial activity (zone of inhibition) after storage versus freshly prepared coatings” value is given as “no significant loss of antimicrobial activity”. In series [2], the BLI signals result was “decreased BLI signals”; the “CFU from bone/joint tissue and implants” value was “the infection was not cleared as CFU were readily detected”.

(Values after patent US20210322622A1, “COMPOSITIONS AND METHODS FOR PREPARATION OF COMPOSITE POLYMER FILMS ON NON-CONDUCTING SUBSTRATES, INCLUDING BANDAGES, AND THEIR USE FOR TREATING WOUNDS” (The Johns Hopkins University, priority 2018, published 2021).)
